Test results: PubChem BioAssay AID328 (DTP/NCI, 2004)
Several values for one entry are separate records, joined by “and”; a condition that tells them apart may be missing. Equal values may be shown once. Inconclusive results and toxic doses are left out. How the source made its calls: active means survival T/C of 150% or more; inactive means T/C below 125% in these data.

Tested on: BDF1 mice, P388 leukemia ip, median survival T/C
Assay: NCI In Vivo Anticancer Drug Screen. Data for tumor model P388 Leukemia (intraperitoneal) in B6D2F1 (BDF1) mice
Conditions: endpoint: median survival time, higher = longer survival
Outline: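 Read-out is survival of treated animals expressed relative to the vehicle group, as a T/C ratio.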

[1] = dose: 100.0 mg/kg/injection, schedule: Q01DX009 (ip), vehicle: Klucel (hydroxypropylcellulose) (HPC)
[2] = dose: 100.0 mg/kg/injection, schedule: Q04DX003 (ip), vehicle: Klucel (hydroxypropylcellulose) (HPC)
[3] = dose: 200.0 mg/kg/injection, schedule: Q01DX009 (ip), vehicle: Klucel (hydroxypropylcellulose) (HPC)
[4] = dose: 200.0 mg/kg/injection, schedule: Q04DX003 (ip), vehicle: Klucel (hydroxypropylcellulose) (HPC)
[5] = dose: 400.0 mg/kg/injection, schedule: Q01DX009 (ip), vehicle: Klucel (hydroxypropylcellulose) (HPC)
[6] = dose: 400.0 mg/kg/injection, schedule: Q04DX003 (ip), vehicle: Klucel (hydroxypropylcellulose) (HPC)
[7] = dose: 100.0 mg/kg/injection, schedule: Q04DX003 (ip), vehicle: saline with Tween-80

Measured: T/C

C[C@]12CC[C@@H]3c4ccc(O)cc4CC[C@H]3[C@@H]1C[C@H](O)C2
inactive: [1] 100 % of control | [2] 100 % of control | [3] 95 % of control | [4] 100 % of control | [5] 112 % of control | [6] 91 % of control

CCCCOC(=O)c1ccc(NC(=O)Nc2ccccc2OC)cc1
inactive: [7] 100 % of control

O=C1OC(=O)C2C3C=CC(O3)C12 (stereo unspecified)
inactive: dose: 3.28 mg/kg/injection, schedule: Q04DX003 (ip), vehicle: saline 100 % of control | dose: 6.25 mg/kg/injection, schedule: Q01DX009 (ip), vehicle: saline 110 % of control | dose: 6.56 mg/kg/injection, schedule: Q04DX003 (ip), vehicle: saline 100 % of control | dose: 12.5 mg/kg/injection, schedule: Q01DX009 (ip), vehicle: saline 104 % of control and 105 % of control | dose: 13.12 mg/kg/injection, schedule: Q04DX003 (ip), vehicle: saline 100 % of control | dose: 25.0 mg/kg/injection, schedule: Q01DX009 (ip), vehicle: saline 90 % of control and 104 % of control | dose: 35.0 mg/kg/injection, schedule: Q01DX009 (ip), vehicle: saline 104 % of control

COC(=O)c1ccc([N+](=O)[O-])c(OC)c1
inactive: dose: 75.0 mg/kg/injection, schedule: Q04DX003 (ip), vehicle: saline 100 % of control | dose: 150.0 mg/kg/injection, schedule: Q04DX003 (ip), vehicle: saline 100 % of control | dose: 300.0 mg/kg/injection, schedule: Q04DX003 (ip), vehicle: saline 104 % of control

CCCCCCCCCCCCCCCCCCNC(=O)Nc1ccc(C)cc1C
inactive: dose: 100.0 mg/kg/injection, schedule: Q04DX003 (ip), vehicle: saline + alcohol 91 % of control | dose: 200.0 mg/kg/injection, schedule: Q04DX003 (ip), vehicle: saline + alcohol 108 % of control | dose: 400.0 mg/kg/injection, schedule: Q04DX003 (ip), vehicle: saline + alcohol 108 % of control

CCOP1(=S)OCC(C)O1 (stereo unspecified)
inactive: dose: 100.0 mg/kg/injection, schedule: Q04DX002 (ip), vehicle: saline with Tween-80 105 % of control | dose: 200.0 mg/kg/injection, schedule: Q04DX002 (ip), vehicle: saline with Tween-80 99 % of control | dose: 400.0 mg/kg/injection, schedule: Q04DX002 (ip), vehicle: saline with Tween-80 105 % of control

Cc1ccc(Nc2ccc(Nc3ccc(C)cc3)c3c2C(=O)c2ccccc2C3=O)cc1
inactive: dose: 50.0 mg/kg/injection, schedule: Q01DX009 (ip), vehicle: saline with Tween-80 90 % of control | dose: 100.0 mg/kg/injection, schedule: Q01DX009 (ip), vehicle: saline with Tween-80 86 % of control | [7] 88 % of control | dose: 200.0 mg/kg/injection, schedule: Q01DX009 (ip), vehicle: saline with Tween-80 90 % of control | dose: 200.0 mg/kg/injection, schedule: Q04DX003 (ip), vehicle: saline with Tween-80 100 % of control

CCCCCCCCC(=O)N1CC1
inactive: dose: 50.0 mg/kg/injection, schedule: Q01DX009 (ip), vehicle: Klucel (hydroxypropylcellulose) (HPC) 95 % of control | [1] 118 % of control | [2] 109 % of control | [3] 86 % of control | [4] 113 % of control

CC1(CBr)Oc2ccccc2O1
inactive: [1] 104 % of control | [2] 100 % of control | [3] 108 % of control | [4] 95 % of control | [5] 116 % of control | [6] 108 % of control

O=Nc1ccc(O)c(=O)cc1
inactive: dose: 1.0 mg/kg/injection, schedule: Q01DX009 (ip), vehicle: saline with Tween-80 109 % of control | dose: 1.0 mg/kg/injection, schedule: Q04DX003 (ip), vehicle: saline 104 % of control | dose: 2.0 mg/kg/injection, schedule: Q01DX009 (ip), vehicle: saline with Tween-80 109 % of control | dose: 2.0 mg/kg/injection, schedule: Q04DX003 (ip), vehicle: saline 104 % of control | dose: 4.0 mg/kg/injection, schedule: Q01DX009 (ip), vehicle: saline with Tween-80 90 % of control | dose: 4.0 mg/kg/injection, schedule: Q04DX003 (ip), vehicle: saline 116 % of control

N=c1c(C(N)=O)cnc2n1CCCCC2
inactive: dose: 100.0 mg/kg/injection, schedule: Q04DX003 (ip), vehicle: saline 109 % of control
